Measurements: ChEMBL document CHEMBL1137265, “Macrolactin N, a new peptide deformylase inhibitor produced by Bacillus subtilis” (Bioorg Med Chem Lett, 2006)
≈ marks a conversion by molar mass, not a printed value.

Experiments:
Escherichia coli = assay: Antibacterial activity against Escherichia coli KCTC 1924 by microdilution broth method; assay type: functional
Staphylococcus aureus = assay: Antibacterial activity against Staphylococcus aureus RN4220 by microdilution broth method; assay type: functional
Bacillus subtilis = assay: Antibacterial activity against Bacillus subtilis KCTC 1021 by microdilution broth method; assay type: functional
Peptide deformylase = molecular target: T1, Peptide deformylase (Staphylococcus aureus, UniProt P68826); assay: Inhibition of Staphylococcus aureus peptide deformylase in presence of substrate f-MAS
T1 sequence (P68826 whole entry): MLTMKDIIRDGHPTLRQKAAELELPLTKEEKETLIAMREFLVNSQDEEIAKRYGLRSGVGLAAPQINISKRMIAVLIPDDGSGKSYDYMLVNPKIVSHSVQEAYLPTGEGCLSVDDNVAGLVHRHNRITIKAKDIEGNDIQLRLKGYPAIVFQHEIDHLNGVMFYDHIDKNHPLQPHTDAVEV

**Q.** What does the source list for `CC1CCC/C=C/CCC(=O)CCC/C=C\C=C\[C@@H](O)C/C=C/C=C\C(=O)O1` (some centres undefined)?
**A.** MIC (Escherichia coli): 100 µg/mL (≈ 259 µM); MIC50 (Staphylococcus aureus): 100 µg/mL (≈ 259 µM); MIC50 (Bacillus subtilis): 100 µg/mL (≈ 259 µM); IC50 (Peptide deformylase): 7.5 µM
